Reference: patent US8901316B2, “Process for preparing aminoadamantyl carbamate derivatives” (Shionogi & Co., Ltd., priority 2010, dated 2014)

Experiment: stability to temperature and humidity changes (storage/handling)
Assay type: physicochemical
Conditions: solid; storage without desiccant agent or without being sealed

With “aminoadamantane carbamate hydrochloride dihydrate [III-2]” as the substance, how does the “stability to temperature and humidity changes” value read?
Its value is “stable to temperature and humidity changes”.
